In the supplement of paper PMC11061612:

Assays:
U-698-M [1] = test: Bliss excess, mean over the matrix (fraction); higher = more synergy; details: U-[…], B-Cell Non-Hodgkin's Lymphoma
In short: (§1)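 Cell lines in DMEM/F12 or RPMI with 10% FBS were plated in 1536-well plates, held 24 hours at 37°C, 5% CO2, then given two-drug dose matrices for 72 hours (DMSO typically 0.2%). Viability was read by CellTiter-Glo 2.0 luminescence and scaled as inhibition from 0 (vehicle wells) to 1 (blank wells). Combination Emax is the second-highest inhibition in the matrix; Bliss excess is observed combination effect minus expected EA + EB − EA·EB, EA and EB being single-agent effects.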

U-698-M [2] = test: combination Emax (second highest fraction inhibited in the dose matrix, 72 h); higher = more inhibition; details: B-Cell Non-Hodgkin's Lymphoma
In short: as §1

[3] = first compound max 0.001 µM, partner max 10 µM, 7x7
[4] = first compound max 1 µM, partner max 1 µM, 7x7
[5] = first compound max 1 µM, partner max 1 µM, 7x7, may be a limit of the assay
[6] = first compound max 10 µM, partner max 0.3 µM, 7x7
[7] = first compound max 1 µM, partner max 10 µM, 7x7
[8] = first compound max 10 µM, partner max 1 µM, 7x7
[9] = first compound max 10 µM, partner max 2 µM, 7x7
[10] = first compound max 10 µM, partner max 10 µM, 7x7
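For Bliss excess, mean over the matrix in this document: after 72 h of two-drug dosing.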

With `COc1cc2c(cc1OCCCCCOc1cc3c(cc1OC)C(=O)N1C=C(C)C[C@H]1C=N3)N=C[C@@H]1CC(C)=CN1C2=O` [SG3199] + O=C(c1cc(Cc2n[nH]c(=O)c3ccccc23)ccc1F)N1CCN(C(=O)C2CC2)CC1 [Olaparib] the Bliss excess (U-698-M [1]; [3]) was -0.0531 and the “combination Emax” value (U-698-M [2]; [3]) was 0.0822.
For `Cc1c2c(nn1C)CSCc1cc(n(C)n1)CSc1cc(c3ccccc3c1)OCCCc1c(C(=O)O)n(C)c3c-2c(Cl)ccc13` [AZD5991] + CC1(C)CCC(CN2CCN(c3ccc(C(=O)NS(=O)(=O)c4ccc(NCC5CCOCC5)c([N+](=O)[O-])c4)c(Oc4cnc5[nH]ccc5c4)c3)CC2)=C(c2ccc(Cl)cc2)C1 [Venetoclax], the Bliss excess (U-698-M [1]; [4]) was -0.0069 and the “combination Emax” value (U-698-M [2]; [5]) was 1.
`Cn1cnc2c(F)c(Nc3ccc(Br)cc3Cl)c(C(=O)NOCCO)cc21` [Selumetinib] + CC(C)n1c(=O)n(C)c2cnc3cc(F)c(-c4ccc(OCCCN5CCCCC5)nc4)cc3c21 [AZD1390] was tested, and the Bliss excess (U-698-M [1]; [6]) was -0.0149 and the “combination Emax” value (U-698-M [2]; [6]) was 0.109.
`Cc1c2c(nn1C)CSCc1cc(n(C)n1)CSc1cc(c3ccccc3c1)OCCCc1c(C(=O)O)n(C)c3c-2c(Cl)ccc13` [AZD5991] + CN(C)CCCOc1ccc(-c2ccc3ncc4c(c3c2)n(C2CCOCC2)c(=O)n4C)cn1 [AZD0156] was tested, and the Bliss excess (U-698-M [1]; [4]) was 0.0036 and the “combination Emax” value (U-698-M [2]; [5]) was 1.
`C=CCn1c(=O)c2cnc(Nc3ccc(N4CCN(C)CC4)cc3)nc2n1-c1cccc(C(C)(C)O)n1` [AZD1775] + C[C@@H]1COCCN1C2=NC(=NC(=C2)C3(CC3)[S@](=N)(=O)C)C4=C5C=CNC5=NC=C4 [AZD6738] was tested, and the Bliss excess (U-698-M [1]; first compound max 1 µM, partner max 10 µM) was 0.0479 and the “combination Emax” value (U-698-M [2]; first compound max 1 µM, partner max 10 µM, may be a limit of the assay) was 1.
For `COc1cccc2c1C(=O)c1c(O)c3c(c(O)c1C2=O)C[C@@](O)(C(=O)CO)C[C@@H]3O[C@H]1C[C@H](N)[C@H](O)[C@H](C)O1` [Doxorubicin] + Cc1cc2ncnn2cc1Nc1ncc2c(n1)n(C1CCOCC1)c(=O)n2C [AZD7648], the Bliss excess (U-698-M [1]; [7]) was 0.084 and the “combination Emax” value (U-698-M [2]; [7]) was 0.909.
For `O=C(c1cc(Cc2n[nH]c(=O)c3ccccc23)ccc1F)N1CCN(C(=O)C2CC2)CC1` [Olaparib] + Cc1c2c(nn1C)CSCc1cc(n(C)n1)CSc1cc(c3ccccc3c1)OCCCc1c(C(=O)O)n(C)c3c-2c(Cl)ccc13 [AZD5991], the Bliss excess (U-698-M [1]; [8]) was 0.0244 and the “combination Emax” value (U-698-M [2]; [8]) was 0.987.
With `O=C(c1cc(Cc2n[nH]c(=O)c3ccccc23)ccc1F)N1CCN(C(=O)C2CC2)CC1` [Olaparib] + CC1(C)CCC(CN2CCN(c3ccc(C(=O)NS(=O)(=O)c4ccc(NCC5CCOCC5)c([N+](=O)[O-])c4)c(Oc4cnc5[nH]ccc5c4)c3)CC2)=C(c2ccc(Cl)cc2)C1 [Venetoclax] the Bliss excess (U-698-M [1]; [8]) was -0.0064 and the “combination Emax” value (U-698-M [2]; [8]) was 0.192.
In the case of `C[C@@H](Oc1cc(-c2cnn(C3CCNCC3)c2)cnc1N)c1c(Cl)ccc(F)c1Cl` [Crizotinib] + CC1=C(C(=CC=C1)Cl)NC(=O)C2=CN=C(S2)NC3=CC(=NC(=N3)C)N4CCN(CC4)CCO [Dasatinib], the Bliss excess (U-698-M [1]; [9]) is reported as -0.0005 and the “combination Emax” value (U-698-M [2]; [9]) is reported as 0.861.
With `C[C@@H]1COCCN1c1cc(C2([S@](C)(=N)=O)CC2)nc(-c2ccnc3[nH]ccc23)n1` [AZD6738] + Nc1ccn([C@@H]2O[C@H](CO)[C@@H](O)C2(F)F)c(=O)n1 [Gemcitabine] the Bliss excess (U-698-M [1]; [6]) was 0.0526 and the “combination Emax” value (U-698-M [2]; [6]) was 0.871.
`CS(=O)(=O)CCNCc1ccc(-c2ccc3ncnc(Nc4ccc(OCc5cccc(F)c5)c(Cl)c4)c3c2)o1` [Lapatinib] + Cn1cnc2c(F)c(Nc3ccc(Br)cc3Cl)c(C(=O)NOCCO)cc21 [Selumetinib] was tested, and the Bliss excess (U-698-M [1]; [10]) was -0.0215 and the “combination Emax” value (U-698-M [2]; [10]) was 0.585.
For `CC(=O)c1c(C)c2cnc(Nc3ccc(N4CCNCC4)cn3)nc2n(C2CCCC2)c1=O` [Palbociclib] + Cn1cnc2c(F)c(Nc3ccc(Br)cc3Cl)c(C(=O)NOCCO)cc21 [Selumetinib], the Bliss excess (U-698-M [1]; [10]) was -0.0483 and the “combination Emax” value (U-698-M [2]; [10]) was 0.583.
With `Cc1c2c(nn1C)CSCc1cc(n(C)n1)CSc1cc(c3ccccc3c1)OCCCc1c(C(=O)O)n(C)c3c-2c(Cl)ccc13` [AZD5991] + C=CCn1c(=O)c2cnc(Nc3ccc(N4CCN(C)CC4)cc3)nc2n1-c1cccc(C(C)(C)O)n1 [AZD1775] the “combination Emax” value (U-698-M [2]; first compound max 1 µM, partner max 1 µM, may be a limit of the assay) was 1.
